According to paper PMC8421423, “Cellular model system to dissect the isoform-selectivity of Akt inhibitors” (Nature Communications, 2021):
Where “and” joins values, the source holds several entries; their conditions need not be identical. Equal values may be shown once. Read-outs that look alike come from different tables or passages of the source.

What was measured:
parental Ba/F3 cells = assay: CellTiter-Glo cell viability assay; format: cell-based, murine; settings: for cell viability: CTG, parental
Ba/F3^myr-Akt1 cells = assay: CellTiter-Glo cell viability assay; settings: for Log ratio EC50 [Akt] / EC50 [Akt], Akt1 / Akt2: cell viability assay Ba/F3 myr-Akt cells, log units; for cell viability: CTG
Ba/F3^myr-Akt2 cells = assay: CellTiter-Glo cell viability assay
Ba/F3^myr-Akt3 cells = assay: CellTiter-Glo cell viability assay; settings: for Log ratio EC50 [Akt] / EC50 [Akt], Akt3 / Akt2: cell viability assay Ba/F3 myr-Akt cells, log units; for cell viability: CTG
Akt1 [1] = molecular target: T1, Akt1 (Homo sapiens, UniProt P31749); assay: STK HTRF KinEASE activity-based assay (IC50); settings: for Log ratio IC50 [Akt] / IC50 [Akt], Akt1 / Akt2: biochemical activity based assay, log units
T1 sequence (P31749 whole entry): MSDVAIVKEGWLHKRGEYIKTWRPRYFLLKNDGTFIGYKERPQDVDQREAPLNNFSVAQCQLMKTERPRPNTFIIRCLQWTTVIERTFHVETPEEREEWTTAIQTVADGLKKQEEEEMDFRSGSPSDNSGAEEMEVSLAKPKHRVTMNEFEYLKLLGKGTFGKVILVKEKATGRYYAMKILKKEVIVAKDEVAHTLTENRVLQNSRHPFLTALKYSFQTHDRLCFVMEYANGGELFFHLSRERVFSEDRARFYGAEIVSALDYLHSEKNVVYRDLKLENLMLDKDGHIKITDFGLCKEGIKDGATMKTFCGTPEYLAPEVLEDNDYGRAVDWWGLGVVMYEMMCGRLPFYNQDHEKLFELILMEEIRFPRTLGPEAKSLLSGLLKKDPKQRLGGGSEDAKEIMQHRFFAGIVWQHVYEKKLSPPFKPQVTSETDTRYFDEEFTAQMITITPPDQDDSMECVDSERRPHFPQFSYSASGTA

Akt2 [2] = molecular target: T2, Akt2 (Homo sapiens, UniProt P31751); assay: STK HTRF KinEASE activity-based assay (IC50)
T2 sequence (P31751 whole entry): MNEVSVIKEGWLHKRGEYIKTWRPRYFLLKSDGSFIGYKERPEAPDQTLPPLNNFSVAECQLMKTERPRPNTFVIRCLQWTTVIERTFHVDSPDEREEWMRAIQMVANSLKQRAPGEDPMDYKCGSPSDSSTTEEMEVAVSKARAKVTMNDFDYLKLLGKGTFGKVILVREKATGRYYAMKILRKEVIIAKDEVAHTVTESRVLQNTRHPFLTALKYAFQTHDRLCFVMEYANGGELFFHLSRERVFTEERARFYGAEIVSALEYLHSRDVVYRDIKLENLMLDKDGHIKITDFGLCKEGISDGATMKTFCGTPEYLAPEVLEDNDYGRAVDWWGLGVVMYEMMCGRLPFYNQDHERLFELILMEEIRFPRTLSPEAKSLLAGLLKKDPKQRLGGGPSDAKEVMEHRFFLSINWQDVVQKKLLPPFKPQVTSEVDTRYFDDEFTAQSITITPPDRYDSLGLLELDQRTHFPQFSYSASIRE

Akt3 [3] = molecular target: T3, Akt3 (Homo sapiens, UniProt Q9Y243); assay: STK HTRF KinEASE activity-based assay (IC50)
T3 sequence (Q9Y243 whole entry): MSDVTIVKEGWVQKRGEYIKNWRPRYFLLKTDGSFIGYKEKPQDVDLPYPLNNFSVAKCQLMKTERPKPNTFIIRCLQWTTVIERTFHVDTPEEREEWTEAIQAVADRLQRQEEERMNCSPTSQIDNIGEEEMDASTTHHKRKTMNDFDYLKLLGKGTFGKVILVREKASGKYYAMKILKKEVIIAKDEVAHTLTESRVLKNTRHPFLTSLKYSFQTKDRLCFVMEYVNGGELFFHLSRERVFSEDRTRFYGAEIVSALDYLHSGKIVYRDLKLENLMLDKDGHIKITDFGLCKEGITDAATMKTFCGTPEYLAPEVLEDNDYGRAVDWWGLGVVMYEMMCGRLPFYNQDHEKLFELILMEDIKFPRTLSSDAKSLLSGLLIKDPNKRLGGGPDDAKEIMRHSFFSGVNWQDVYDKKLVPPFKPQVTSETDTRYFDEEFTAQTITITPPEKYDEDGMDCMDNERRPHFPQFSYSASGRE

Akt2 [4] = molecular target: T2, Akt2; assay: PhosphoSens continuous fluorometric kinetic enzyme assay
Akt3 [5] = molecular target: T3, Akt3; assay: as above
[6] = CellTiter-Glo cell viability assay; format: cell-based, murine; settings: mouse, parental Ba/F3 cells, CTG, parental, 5000 nM, single replicates
[7] = tested on: pAkt^S473 and downstream targets in Ba/F3 myr-Akt3; assay: Western blot analysis, Ba/F3 myr-Akt3 cells; format: cell-based, murine; settings: Ba/F3 myr-Akt3, 4-h treatment
Akt1 [8] = molecular target: T1, Akt1; assay: PhosphoSens continuous fluorometric kinetic enzyme assay
[9] = Mus musculus, BaF3, parental cells, mean of replicates, read-out: CTG BaF3, Mean
[10] = Mus musculus, BaF3, parental cells, single replicates, read-out: CTG BaF3, individual determinations
[11] = parental cells, single replicates, read-out: CTG BaF3, individual determinations
[12] = Mus musculus, read-out: CTG BaF3myr-Akt1, Mean, mean of replicates
[13] = Mus musculus, read-out: CTG BaF3myr-Akt1, individual determinations, single replicates
[14] = read-out: CTG BaF3myr-Akt1, individual determinations, single replicates
[15] = Mus musculus, read-out: CTG BaF3myr-Akt2, Mean, mean of replicates
[16] = Mus musculus, read-out: CTG BaF3myr-Akt2, individual determinations, single replicates
[17] = read-out: CTG BaF3myr-Akt2, individual determinations, single replicates
[18] = Mus musculus, read-out: CTG BaF3myr-Akt3, Mean, mean of replicates
[19] = Mus musculus, read-out: CTG BaF3myr-Akt3, individual determinations, single replicates
[20] = read-out: CTG BaF3myr-Akt3, individual determinations, single replicates
[21] = HTRF IC50 Akt1, Mean, mean of replicates
[22] = HTRF IC50 Akt1, individual determinations, single replicates
[23] = IC50 Akt1, HTRF, ATP at KM, 1 h preincubation
[24] = HTRF IC50 Akt2, Mean, mean of replicates
[25] = HTRF IC50 Akt2, individual determinations, single replicates
[26] = IC50 Akt2, HTRF, ATP at KM, 1 h preincubation
[27] = HTRF IC50 Akt3, individual determinations, single replicates
[28] = IC50 Akt3, HTRF, ATP at KM, 1 h preincubation
[29] = Ki Akt2, Mean, mean of replicates
[30] = Ki Akt2, individual determinations, single replicates
[31] = read-out: kinact Akt2, individual determinations, single replicates

## C=CC(=O)Nc1ccc2[nH]c(=O)n(C3CCN(Cc4ccc(-c5ncc(Cc6cccnc6)cc5-c5ccccc5)cc4)CC3)c2c1 [compound 21]
Parental Ba/F3 cells; [9]
  EC50: 14700 nM
Parental Ba/F3 cells; [10]
  EC50: 18200 nM
Parental Ba/F3 cells; [11]
  EC50: 11700 nM and 14300 nM
Ba/F3^myr-Akt1 cells; [12]
  EC50: 19700 nM
Ba/F3^myr-Akt1 cells; [13]
  EC50: 21200 nM
Ba/F3^myr-Akt1 cells
  Log ratio EC50 [Akt] / EC50 [Akt], Akt1 / Akt2: 0.95
Ba/F3^myr-Akt1 cells; [14]
  EC50: 13300 nM and 24600 nM
Ba/F3^myr-Akt2 cells; [15]
  EC50: 2230 nM
Ba/F3^myr-Akt2 cells; [16]
  EC50: 2020 nM
Ba/F3^myr-Akt2 cells; [17]
  EC50: 2490 nM and 2190 nM
Ba/F3^myr-Akt3 cells; [18]
  EC50: 6520 nM
Ba/F3^myr-Akt3 cells; [19]
  EC50: 5550 nM
Ba/F3^myr-Akt3 cells
  Log ratio EC50 [Akt] / EC50 [Akt], Akt3 / Akt2: -0.46
Ba/F3^myr-Akt3 cells; [20]
  EC50: 6270 nM and 7120 nM
Akt1 [1]; [21]
  IC50: 1800 nM
Akt1 [1]; [22]
  IC50: 1820 nM and 2040 nM and 2470 nM and 858 nM
Akt1 [1]; [23]
  IC50: 2110 ± 268 nM
Akt1 [1]
  Log ratio IC50 [Akt] / IC50 [Akt], Akt1 / Akt2: 1.30
Akt2 [2]; [24]
  IC50: 98.5 nM
Akt2 [2]; [25]
  IC50: 92.9 nM and 124 nM and 104 nM
Akt2 [2]; [26]
  IC50: 99 ± 6 nM
Akt3 [3]; [27]
  IC50: 233 nM and 416 nM and 225 nM and 214 nM
Akt3 [3]; [28]
  IC50: 272 ± 84 nM
Akt2 [4]; Ki Akt2
  Ki: 21 ± 5 nM
Akt2 [4]; [29]
  Ki: 21.3 nM
Akt2 [4]; [30]
  Ki: 27.2 nM and 15.6 nM
Akt2 [4]; read-out: kinact /Ki Akt2
  kinact/KI: 12000 ± 5000 M⁻¹ s⁻¹
Akt2 [4]; read-out: kinact Akt2
  kinact: 0.000233 s⁻¹
Akt2 [4]; [31]
  kinact: 0.000267 s⁻¹
Akt2 [4]; single replicates
  kinact Akt2, individual determinations: 0.017 min⁻¹ and 0.009 min⁻¹
Akt3 [5]; Ki Akt3
  Ki: 64 ± 4 nM
Akt3 [5]; Ki Akt3, Mean, mean of replicates
  Ki: 63.8 nM
Akt3 [5]; Ki Akt3, individual determinations, single replicates
  Ki: 62.6 nM and 69.3 nM and 59.4 nM
Akt3 [5]; read-out: kinact /Ki Akt3
  kinact/KI: 8000 ± 1000 M⁻¹ s⁻¹
Akt3 [5]; read-out: kinact /Ki Akt3, individual determinations, single replicates
  kinact/KI: 7000 M⁻¹ s⁻¹
Akt3 [5]; read-out: kinact Akt3
  kinact: 0.000517 s⁻¹
Akt3 [5]; read-out: kinact Akt3, Mean, mean of replicates
  kinact: 0.000517 s⁻¹
Akt3 [5]; read-out: kinact Akt3, individual determinations, single replicates
  kinact: 0.000433 s⁻¹
Akt3 [5]; single replicates
  kinact /Ki Akt3, individual determinations: 0.009
  kinact Akt3, individual determinations: 0.037 min⁻¹ and 0.031 min⁻¹

## C=CC(=O)Nc1ccc2[nH]c(=O)n(C3CCN(Cc4ccc(-c5[nH]c(=O)c(CC(C)C)nc5-c5ccccc5)cc4)CC3)c2c1 [16b, reference compound]
[6]
  viability at 3 days, 5 µM: 98%
Parental Ba/F3 cells; 0.1 nM, single replicates, 0.0001 µM
  cell viability: 102.9 % of control and 116.0 % of control and 91.9 % of control
Parental Ba/F3 cells; 5000 nM, single replicates, 5 µM
  cell viability: 99.0 % of control and 116.0 % of control
Parental Ba/F3 cells; [9]
  EC50: 20100 nM
Parental Ba/F3 cells; [10]
  EC50: 21600 nM
Parental Ba/F3 cells; [11]
  EC50: 15900 nM and 22900 nM
[7]
  pAkt and downstream targets (immunoblot): preferential binding
Ba/F3^myr-Akt1 cells; myr-Akt1, 0.1 nM, single replicates, 0.0001 µM
  cell viability: 105.6 % of control
Ba/F3^myr-Akt1 cells; myr-Akt1, 5000 nM, single replicates, 5 µM
  cell viability: 102.7 % of control and 99.1 % of control
Ba/F3^myr-Akt1 cells; [13]
  EC50: 29700 nM
Ba/F3^myr-Akt1 cells; Mus musculus, read-out: cell viability, CTG, myr-Akt1, 0.1 nM, single replicates
  viability at 0.0001 µM: 99%
Ba/F3^myr-Akt1 cells; Mus musculus, read-out: cell viability, CTG, myr-Akt1, 5000 nM, single replicates
  viability at 5 µM: 102%
Ba/F3^myr-Akt1 cells; [14]
  EC50: 29800 nM and > 30000 nM
Ba/F3^myr-Akt3 cells; myr-Akt3, 0.1 nM, single replicates, 0.0001 µM
  cell viability: 96.8 % of control
Ba/F3^myr-Akt3 cells; myr-Akt3, 5000 nM, single replicates, 5 µM
  cell viability: 61.2 % of control
Ba/F3^myr-Akt3 cells; [20]
  EC50: > 30000 nM and 24500 nM and 11400 nM

## C=CC(=O)Nc1ccc2[nH]c(=O)n(C3CCN(Cc4ccc(-c5ncc(C(=O)Nc6cnn(C)c6)cc5-c5ccccc5)cc4)CC3)c2c1 [compound 13]
Parental Ba/F3 cells; [11]
  EC50: 9100 nM and 28800 nM and > 30000 nM
Ba/F3^myr-Akt1 cells; [12]
  EC50: 19300 nM
Ba/F3^myr-Akt1 cells; [13]
  EC50: 21300 nM
Ba/F3^myr-Akt1 cells
  Log ratio EC50 [Akt] / EC50 [Akt], Akt1 / Akt2: 0.43
Ba/F3^myr-Akt1 cells; [14]
  EC50: 19500 nM and 17100 nM
Ba/F3^myr-Akt2 cells; [15]
  EC50: 7180 nM
Ba/F3^myr-Akt2 cells; [16]
  EC50: 7180 nM
Ba/F3^myr-Akt2 cells; [17]
  EC50: 6220 nM and 7660 nM
Ba/F3^myr-Akt3 cells; [18]
  EC50: 22600 nM
Ba/F3^myr-Akt3 cells; [19]
  EC50: 25800 nM
Ba/F3^myr-Akt3 cells
  Log ratio EC50 [Akt] / EC50 [Akt], Akt3 / Akt2: -0.50
Ba/F3^myr-Akt3 cells; [20]
  EC50: 26500 nM and 15600 nM
Akt1 [1]; [21]
  IC50: 97.6 nM
Akt1 [1]; [22]
  IC50: 113 nM and 96 nM and 84.4 nM
Akt1 [1]; [23]
  IC50: 98 ± 15 nM
Akt1 [1]
  Log ratio IC50 [Akt] / IC50 [Akt], Akt1 / Akt2: 0.27
Akt2 [2]; [24]
  IC50: 53.5 nM
Akt2 [2]; [25]
  IC50: 53.9 nM and 59.1 nM and 47.4 nM
Akt2 [2]; [26]
  IC50: 53 ± 5 nM
Akt3 [3]; HTRF IC50 Akt3, Mean, mean of replicates
  IC50: 3540 nM
Akt3 [3]; [27]
  IC50: 3080 nM and 3130 nM and 4410 nM
Akt3 [3]; [28]
  IC50: 3540 ± 617 nM
Akt1 [8]; Ki Akt1
  Ki: 8 ± 2 nM
Akt1 [8]; Ki Akt1, Mean, mean of replicates
  Ki: 8.12 nM
Akt1 [8]; Ki Akt1, individual determinations, single replicates
  Ki: 5.5 nM and 10.9 nM
Akt1 [8]; read-out: kinact /Ki Akt1
  kinact/KI: 31000 ± 11000 M⁻¹ s⁻¹
Akt1 [8]; read-out: kinact /Ki Akt1, Mean, mean of replicates
  kinact/KI: 31000 M⁻¹ s⁻¹
Akt1 [8]; read-out: kinact Akt1
  kinact: 0.000233 s⁻¹
Akt1 [8]; read-out: kinact Akt1, individual determinations, single replicates
  kinact: 0.00025 s⁻¹
Akt1 [8]; single replicates
  kinact Akt1, individual determinations: 0.012 min⁻¹ and 0.015 min⁻¹
Akt2 [4]; Ki Akt2
  Ki: 40 ± 3 nM
Akt2 [4]; [29]
  Ki: 40.8 nM
Akt2 [4]; [30]
  Ki: 42.3 nM (2×) and 37.7 nM
Akt2 [4]; read-out: kinact /Ki Akt2
  kinact/KI: 8000 ± 1000 M⁻¹ s⁻¹
Akt2 [4]; read-out: kinact /Ki Akt2, Mean, mean of replicates
  kinact/KI: 7580 M⁻¹ s⁻¹
Akt2 [4]; read-out: kinact /Ki Akt2, individual determinations, single replicates
  kinact/KI: 7430 M⁻¹ s⁻¹
Akt2 [4]; read-out: kinact Akt2
  kinact: 0.000317 s⁻¹
Akt2 [4]; read-out: kinact Akt2, Mean, mean of replicates
  kinact: 0.000317 s⁻¹
Akt2 [4]; [31]
  kinact: 0.000317 s⁻¹
Akt2 [4]; single replicates
  kinact /Ki Akt2, individual determinations: 0.00743
  kinact Akt2, individual determinations: 0.019 min⁻¹ and 0.018 min⁻¹
